Assay results reported in US20040259176A1, “Structural basis for the guanine nucleotide-binding activity of tissue transglutaminase and its regulation of transamidation activity” (priority 2003, published 2004).

Columns and labels:
Type in all cases: cell-based, human
SKBR3 cells [1] = assay: Nuclear condensation or blebbing assay (doxorubicin-induced apoptosis)
Protocol: (§1) FIGS. 1A-D illustrate that the protective effect of EGF from doxorubicin-induced apoptosis is blocked by MDC in SKBR3 cells. In FIG. 11A, nearly confluent cultures of SKBR3 and MDAMB231 cells were placed in low serum medium. The following day, the cells were exposed to low serum medium +/−0.25 μM doxorubicin (Dox) for the times indicated and subsequently lysed. The presence of the activated form of caspase 3 (cleaved caspase 3) and actin (actin) in the cell extracts was assessed by Western blot analysis. In FIG. 11B, SKBR3 and MDAMB231 cells were maintained in low serum medium (0) or treated with 10 μM MDC (MDC) for 1.5 days. During this incubation, the SKBR3 cell cultures were also stimulated with +/−100 ng/ml EGF or +/−5 μM RA. All cell cultures were then treated with +/−0.25 μM doxorubicin (Dox) for about 1 day and the cells were scored for programmed cell death as described in Example 13. The assay was performed three times and the average percentage of cell death was plotted (FIG. 11C).
(§2) NIH3T3 cells were grown in Dulbecco's modified Eagle's medium containing 10% calf serum and 100 units/ml penicillin. SKBR3 and MDAMB231 cells were grown in RPMI 1640 medium containing 10% fetal bovine serum and 100 units/ml penicillin. The cell lines were maintained in a humidified atmosphere with 5% CO2 at 37° C. For the various treatments described, the cells were grown to near confluence in medium containing 10% serum, and then medium containing 1% serum or no serum with 5 μM RA, and/or 100 ng/ml EGF, +/−7 μM LY294002, and +/−0.2 μM doxorubicin were added for the appropriate amount of time. Cells were rinsed with phosphate-buffered saline (PBS) and then lysed with cell lysis buffer (10 mM Na2HPO4, 150 mM NaCl, 1% Triton X-100, 0.5% sodium deoxycholate, 0.1% SDS, 0.004% NaF, 1 mM NaVO4, 25 mM β-glycerophosphoric acid, 100 μg/ml phenylmethanesulfonyl fluoride, and 1 μg/ml each aprotinin and leupeptin, pH 7.35). The lysates were clarified by centrifugation at 12,000×g for 10 minutes at 4° C. Protein concentrations were determined using the Bio-Rad DC protein assay.
(§3) Cells were seeded in 6-well dishes and grown in complete medium for 2 days. The cells were then incubated in medium containing 1% serum +/−5 μM RA, +/−100 ng/ml EGF, and +/−10 μM MDC for 2 days. The cultures were then incubated with fresh medium containing RA, EGF, and MDC and +/−0.2 μM doxorubicin for an additional 1.5 days and were fixed and stained with 4,6-diamidino-2-phenylindole (2 μg/ml) for viewing by fluorescence microscopy. Apoptotic cells were identified by condensed nuclei and/or blebbing.

MDAMB231 cells [2] = assay: as above; conditions: FIG. 11C
Protocol: as §1, §2, §3

SKBR3 cells [3] = assay: Western blot for cleaved (activated) caspase 3; conditions: 24 hours of incubation with doxorubicin, FIG. 11A
Protocol: as §1
(§4) NIH3T3 cells were grown in Dulbecco's modified Eagle's medium containing 10% calf serum and 100 units/ml penicillin. SKBR3 and MDAMB231 cells were grown in RPMI 1640 medium containing 10% fetal bovine serum and 100 units/ml penicillin. The cell lines were maintained in a humidified atmosphere with 5% CO2 at 37° C. […] Protein concentrations were determined using the Bio-Rad DC protein assay. […]

MDAMB231 cells [4] = assay: Western blot for cleaved (activated) caspase 3; conditions: MDAMB231 cells exposed to doxorubicin; FIG. 11A
Protocol: as §1, §4

CN(C)c1cccc2c(S(=O)(=O)NCCCCCN)cccc12 [MDC, monodansylcadaverine]
effect on the pro-survival effect of EGF from doxorubicin-induced apoptosis (SKBR3 cells [1]; SKBR3 cells incubated with MDC (10 μM), EGF and doxorubicin): nearly completely eliminated the pro-survival effect of EGF | susceptibility to doxorubicin-induced apoptosis compared to doxorubicin treatment alone (MDAMB231 cells [2]; MDAMB231 cells, 10 μM MDC plus doxorubicin): slightly more than twice as susceptible

COc1cccc2c1C(=O)c1c(O)c3c(c(O)c1C2=O)C[C@@](O)(C(=O)CO)C[C@@H]3O[C@H]1C[C@H](N)[C@H](O)[C@H](C)O1 [doxorubicin]
cleaved or activated caspase 3 (SKBR3 cells [3]): easily detected | cleaved form of caspase 3 (MDAMB231 cells [4]): failed to induce the cleaved form of caspase 3 to the same extent as in SKBR3 cells | cells displaying nuclear condensation or blebbing (SKBR3 cells [1]; SKBR3 cells exposed to doxorubicin (0.25 μM, about 1 day), low serum, FIG. 11B): ~80% | apoptotic rate (MDAMB231 cells [2]; MDAMB231 cells exposed to doxorubicin (0.25 μM)): 25%
